One block for each compound: values may come before it.
Tests used:
DIO-NASH mice = experiment: Biopsy-proven DIO-NASH mouse model; type: in vivo; settings: for hepatocyte ballooning score (0-2), pre-study to post-study biopsy: animals that initially exhibited ballooning
Procedure: All mice entering the study were stratified based on liver pre-biopsy at week −3. Only mice with a fibrosis score ≥1 and a steatosis score ≥2 were included in the study. The stratified mice were randomized into treatment groups based on liver collagen type 1 alpha 1 (collal) quantification at week −3.
Body weight was measured daily for the entire study period. Food intake was measured daily for the first 14 days, and then weekly until study end. EchoMRI whole-body scanning was performed in week 11. At study end were measured plasma levels of alanine transaminase (ALT), aspartate transaminase (AST), γ-glutamyltransferase (GGT), triglycerides (TG) and total cholesterol (TC), liver levels of TG, TC, col1α1 and galectin-3, the expression levels of a wide variety of mRNAs in the liver, and the liver weight, and were performed liver biopsy/necropsy to assess steatosis, inflammation, ballooning and fibrosis of the liver.
For blood and plasma assays, blood samples were collected in heparinized tubes and plasma was separated and stored at −80° C. until analysis. ALT, AST, GGT, TG and TC levels were measured using commercial kits (Roche Diagnostics, Germany) and the Cobas™ C-501 autoanalyzer according to the manufacturer's instructions.
For liver tissue assays, the triglycerides and cholesterol content in the liver was measured using the Triglyceride and Cholesterol reagents (Cat. No. 22-045-795 and Cat. No. 22-045-780, respectively, Roche Diagnostics, Germany) and the Cobas™ C-501 autoanalyzer. Homogenized liver tissue was heated to 80-100° C. twice and centrifuged in a microcentrifuge, and the triglycerides and cholesterol content in the resulting supernatant was measured.
The body composition of the mice was assessed by an EchoMRI 3-1 body composition analyzer (EchoMRI, U.S.). Unanesthetised mice were placed in a plastic tube inside the MRI scanner for about 80 seconds. The body composition was expressed as fat tissue mass, fat-free tissue mass (lean tissue mass) and water.
For liver biopsy, mice were anesthetized by inhalation of isoflurane (2-3%). A small abdominal incision was made in the midline, and the left lateral lobe of the liver was exposed. A cone-shaped wedge of liver tissue (about 50 mg) was excised from the distal portion of the lobe and fixated in 10% neutral-buffered formalin (4% formaldehyde) for histology. The cut surface of the liver was instantly electro-coagulated using bipolar coagulation (ERBE VIO 100 electrosurgical unit). After pre-biopsy, the liver was returned to the abdominal cavity, the abdominal wall was sutured, and the skin was closed with staples. For post-operative recovery, the mice were administered carprofen (5 mg/kg) subcutaneously on the day of operation and on days 1 and 2 post-operation.
For histological staining, in brief, slides with paraffin-embedded sections were de-paraffinated in xylene and then rehydrated in a series of graded ethanol. For hematoxylin and eosin (H&E) staining, the slides were incubated in Mayer's Hematoxylin (Dako), washed in tap water, stained in Eosin Y solution (Sigma-Aldrich), hydrated, mounted with Pertex and then allowed to dry before scanning. For picrosirius red (PSR) staining, the slides were incubated in Weigert's iron hematoxylin (Sigma-Aldrich), washed in tap water, stained in picrosirius red (Sigma-Aldrich) and then washed twice in acidified water. Excess water was removed by shaking the slides, and the slides were dehydrated in three changes of 99% ethanol, cleared in xylene, mounted with Pertex and then allowed to dry before scanning.
For collagen type 1 alpha 1 (collal) and galectin-3 (GAL3) immunohistochemical (IHC) staining, after antigen retrieval and blocking of endogenous peroxidase activity, slides were incubated with the primary antibody (Cat. No. 1310-01 from Southern Biotech for col1α1, or Cat. No. 125402 from Biolegend for galectin-3). […]

db/db mice = experiment: Glucose-lowering activity in db/db mice; type: in vivo
Procedure: The 60 female db/db B6BKS (D) Leprdb/J (strain 000697) mice for this study were about 8-9 weeks old at arrival (Jackson Laboratory, Bar Harbor, Me.). […] One group of 8 female mice served as the vehicle control and received the vehicle, 0.2% BSA in saline, pH 7.4. One additional group of 8 female mice received the positive-control compound, liraglutide, at a dose level of 50 nmoles/kg. The test compounds, vehicle and positive-control compound were subcutaneously injected at a dose volume of 6 mL/kg on day 1 at about 0, 7 and 24 hours.
Clinical observations were conducted at receipt, prior to randomization, and daily from days 1 to 5. Body weights were measured and recorded at receipt, prior to randomization, and daily from days 1 to 5. Food consumption was measured and recorded daily from days 1 to 5. Blood samples for glucose analysis were collected pre-study (day −3) and at 0, 1, 2, 4, 8, 10, 24, 48, 72 and 96 hours following the first dose on day 1. At study termination all animals were euthanized, and the carcasses were discarded without further evaluation.

human GLP-1 receptor = molecular target: T1, human GLP-1 receptor (Homo sapiens, UniProt P43220); experiment: DiscoveRx LeadHunter cellular assay, cAMP stimulation, GLP-1 receptor in CHO cells; type: cell-based; settings: human GLP-1 receptor in CHO cells (DiscoveRx); read-out: EC50 cAMP GLP-1 R
T1 construct: host or cells: CHO cells

human glucagon receptor = molecular target: T2, human glucagon receptor (Homo sapiens, UniProt P47871); experiment: DiscoveRx LeadHunter cellular assay, cAMP stimulation, glucagon receptor in CHO cells; type: cell-based
T2 construct: host or cells: CHO cells

[1] = 12 weeks QD (SP-1373 5/10 nmole/kg SC; semaglutide 10 nmole/kg SC; elafibranor PO)
[2] = 12 weeks QD (SP-1373 5/10 nmole/kg SC; semaglutide 10 nmole/kg SC; elafibranor 78 mole/kg PO)
[3] = db/db mice, high-dose (300 nmoles/kg) sc at 0, 7 and 24 hours, days 2 and 3

T2 sequence (P47871 26-477): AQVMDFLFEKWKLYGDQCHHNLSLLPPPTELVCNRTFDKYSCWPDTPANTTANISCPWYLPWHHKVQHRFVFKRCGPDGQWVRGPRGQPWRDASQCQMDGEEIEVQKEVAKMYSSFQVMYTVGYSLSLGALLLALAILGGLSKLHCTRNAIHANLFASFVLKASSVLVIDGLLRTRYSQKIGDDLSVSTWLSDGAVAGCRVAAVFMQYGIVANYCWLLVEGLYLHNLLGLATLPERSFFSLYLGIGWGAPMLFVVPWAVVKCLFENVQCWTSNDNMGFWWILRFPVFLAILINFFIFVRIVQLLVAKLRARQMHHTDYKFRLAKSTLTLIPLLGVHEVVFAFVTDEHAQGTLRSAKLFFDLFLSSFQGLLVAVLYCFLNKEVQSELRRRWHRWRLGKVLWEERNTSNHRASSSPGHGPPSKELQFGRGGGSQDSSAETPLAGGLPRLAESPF
T1 sequence (P43220 24-463): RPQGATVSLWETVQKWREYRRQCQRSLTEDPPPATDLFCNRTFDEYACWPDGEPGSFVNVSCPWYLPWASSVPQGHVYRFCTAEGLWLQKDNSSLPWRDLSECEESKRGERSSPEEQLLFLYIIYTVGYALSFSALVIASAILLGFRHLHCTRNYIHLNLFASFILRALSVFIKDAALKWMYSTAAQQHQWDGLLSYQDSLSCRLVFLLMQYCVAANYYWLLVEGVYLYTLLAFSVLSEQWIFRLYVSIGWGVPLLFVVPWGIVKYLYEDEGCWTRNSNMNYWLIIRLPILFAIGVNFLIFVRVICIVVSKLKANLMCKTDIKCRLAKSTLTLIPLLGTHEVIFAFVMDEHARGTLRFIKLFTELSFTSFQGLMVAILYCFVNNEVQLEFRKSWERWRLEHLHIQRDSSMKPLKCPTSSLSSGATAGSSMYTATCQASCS

Compound: semaglutide
body weight (DIO-NASH mice; [1]): less body weight decrease | hepatocyte ballooning score (0-2), pre-study to post-study biopsy (DIO-NASH mice; [1]): showed no ballooning | liver steatosis, histology with hematoxylin and eosin stain (DIO-NASH mice; semaglutide 10 nmole/kg SC QD 12 weeks): moderate decrease in hepatosteatosis

Compound: CSc1ccc(C(=O)/C=C/c2cc(C)c(OC(C)(C)C(=O)O)c(C)c2)cc1 [elafibranor]
liver fibrosis score (0-4), picrosirius red (DIO-NASH mice; 12 weeks QD (SP-1373 5/10 nmole/kg SC; elafibranor PO)): reduced liver fibrosis in the majority of animals | liver triglycerides (TG) level (DIO-NASH mice; [2]): little or no effect | liver weight (DIO-NASH mice; [2]): increased liver weight | total liver collagen type 1 alpha 1 staining (measure of liver fibrosis) (DIO-NASH mice; [2]): modest effect | total liver galectin-3 staining (biomarker for liver inflammation and fibrosis) (DIO-NASH mice; [2]): essentially no effect | body weight (DIO-NASH mice; [1]): less body weight decrease | liver total cholesterol (TC) level (DIO-NASH mice; [1]): little or no effect | hepatocyte ballooning score (0-2), pre-study to post-study biopsy (DIO-NASH mice; [1]): showed no ballooning

Compound: CCCCCCCCCCCCO[C@@H]1O[C@H](C(=O)NCCCC[C@H](NC(=O)[C@@H](NC(=O)[C@H](Cc2ccccc2)NC(=O)[C@H](CCC(=O)O)NC(=O)[C@@H]2CCCCNC(=O)CC[C@H](NC(=O)[C@H](CC(=O)O)NC(=O)[C@H](CC(C)C)NC(=O)[C@H](Cc3ccc(O)cc3)NC(=O)[C@H](CCCCN)NC(=O)[C@H](CO)NC(=O)[C@H](Cc3ccc(O)cc3)NC(=O)[C@H](CC(=O)O)NC(=O)[C@H](CO)NC(=O)[C@@H](NC(=O)[C@H](Cc3ccccc3)NC(=O)[C@@H](NC(=O)CNC(=O)[C@H](CCC(N)=O)NC(=O)C(C)(C)NC(=O)[C@@H](N)Cc3c[nH]cn3)[C@@H](C)O)[C@@H](C)O)C(=O)N[C@@H](CCC(N)=O)C(=O)N[C@@H](C)C(=O)N[C@@H](C)C(=O)N2)[C@@H](C)CC)C(=O)N[C@@H](Cc2c[nH]c3ccccc23)C(=O)N[C@@H](CC(C)C)C(=O)N[C@@H](CC(C)C)C(=O)N[C@@H](CCC(N)=O)C(=O)N[C@H](C(N)=O)[C@@H](C)O)[C@@H](O)[C@H](O)[C@H]1O [EU-A993]
db/db Mice-Mean Blood Glucose (mg/dL) 0 hr (db/db mice; dose 250 nmole/kg sc): 503 mg/dL | db/db Mice-Mean Blood Glucose (mg/dL) 10 hr (db/db mice; dose 250 nmole/kg sc): 305 mg/dL | db/db Mice-Mean Blood Glucose (mg/dL) 24 hr (db/db mice; dose 250 nmole/kg sc): 324 mg/dL | db/db Mice-Mean Blood Glucose (mg/dL) 48 hr (db/db mice; dose 250 nmole/kg sc): 426 mg/dL

Compound: CCCCCCCCCCCCCCO[C@@H]1O[C@H](C(=O)NCCCC[C@H](NC(=O)[C@@H](NC(=O)[C@H](Cc2ccccc2)NC(=O)[C@H](CCC(=O)O)NC(=O)[C@@H]2CCCCNC(=O)CC[C@H](NC(=O)[C@H](CC(=O)O)NC(=O)[C@H](CC(C)C)NC(=O)[C@H](Cc3ccc(O)cc3)NC(=O)[C@H](CCCCN)NC(=O)[C@H](CO)NC(=O)[C@H](Cc3ccc(O)cc3)NC(=O)[C@H](CC(=O)O)NC(=O)[C@H](CO)NC(=O)[C@@H](NC(=O)[C@H](Cc3ccccc3)NC(=O)[C@@H](NC(=O)CNC(=O)[C@H](CCC(N)=O)NC(=O)C(C)(C)NC(=O)[C@@H](N)Cc3c[nH]cn3)[C@@H](C)O)[C@@H](C)O)C(=O)N[C@@H](CCC(N)=O)C(=O)N[C@@H](C)C(=O)N[C@@H](C)C(=O)N2)[C@@H](C)CC)C(=O)N[C@@H](Cc2c[nH]c3ccccc23)C(=O)N[C@@H](CC(C)C)C(=O)N[C@@H](CC(C)C)C(=O)N[C@@H](CCC(N)=O)C(=O)N[C@H](C(N)=O)[C@@H](C)O)[C@@H](O)[C@H](O)[C@H]1O [EU-A994]
body weight changes versus vehicle (db/db mice; [3]): Significant body weight changes versus vehicle | glucose levels versus vehicle (db/db mice; db/db mice, high-dose (300 nmoles/kg), at 10 and 24 hr): significantly different from vehicle | food consumption versus liraglutide (db/db mice; db/db mice, high-dose (300 nmoles/kg), day 1): significantly different from liraglutide | db/db Mice-Mean Blood Glucose (mg/dL) 0 hr (db/db mice; dose 300 nmole/kg sc): 554 mg/dL | db/db Mice-Mean Blood Glucose (mg/dL) 10 hr (db/db mice; dose 300 nmole/kg sc): 242 mg/dL | db/db Mice-Mean Blood Glucose (mg/dL) 24 hr (db/db mice; dose 300 nmole/kg sc): 209 mg/dL | db/db Mice-Mean Blood Glucose (mg/dL) 48 hr (db/db mice; dose 300 nmole/kg sc): 385 mg/dL

EC50 (human GLP-1 receptor): 0.034 nM | EC50 (human glucagon receptor): 0.486 nM
Compound: CCCCCCCCCCCCCCCCCCO[C@@H]1O[C@H](CO[C@H]2O[C@H](C(=O)NCCCC[C@H](NC(=O)[C@@H](NC(=O)[C@H](Cc3ccccc3)NC(=O)[C@H](CCC(=O)O)NC(=O)[C@@H]3CCCCNC(=O)CC[C@H](NC(=O)[C@H](CC(=O)O)NC(=O)[C@H](CC(C)C)NC(=O)[C@H](Cc4ccc(O)cc4)NC(=O)[C@H](CCCCN)NC(=O)[C@H](CO)NC(=O)[C@H](Cc4ccc(O)cc4)NC(=O)[C@H](CC(=O)O)NC(=O)[C@H](CO)NC(=O)[C@@H](NC(=O)[C@H](Cc4ccccc4)NC(=O)[C@@H](NC(=O)CNC(=O)[C@H](CCC(N)=O)NC(=O)C(C)(C)NC(=O)[C@@H](N)Cc4c[nH]cn4)[C@@H](C)O)[C@@H](C)O)C(=O)N[C@@H](CCC(N)=O)C(=O)N[C@@H](C)C(=O)N[C@@H](C)C(=O)N3)[C@@H](C)CC)C(=O)N[C@@H](Cc3c[nH]c4ccccc34)C(=O)N[C@@H](CC(C)C)C(=O)N[C@@H](CC(C)C)C(=O)N[C@@H](CCC(N)=O)C(=O)N[C@H](C(N)=O)[C@@H](C)O)[C@H](O)[C@H](O)[C@H]2O)[C@@H](O)[C@H](O)[C@H]1O [EU-A1026]
body weight changes versus vehicle (db/db mice; [3]): Significant body weight changes versus vehicle | food consumption versus liraglutide (db/db mice; db/db mice, high-dose (300 nmoles/kg), day 2): significantly different from liraglutide | body weight changes versus vehicle (db/db mice; db/db mice, low-dose (100 nmoles/kg) sc at 0, 7 and 24 hours, days 3 and 4): Significant body weight changes versus vehicle | food consumption versus liraglutide (db/db mice; db/db mice, low-dose (100 nmoles/kg), day 2): significantly different from liraglutide | db/db Mice-Mean Blood Glucose (mg/dL) 0 hr (db/db mice; dose 300 nmole/kg sc): 531 mg/dL | db/db Mice-Mean Blood Glucose (mg/dL) 10 hr (db/db mice; dose 300 nmole/kg sc): 399 mg/dL | db/db Mice-Mean Blood Glucose (mg/dL) 24 hr (db/db mice; dose 300 nmole/kg sc): 438 mg/dL | db/db Mice-Mean Blood Glucose (mg/dL) 48 hr (db/db mice; dose 300 nmole/kg sc): 505 mg/dL
